Literature values in patent US10194693B2, “Aerosol generating device” (FONTEM HOLDINGS 1 B.V., priority 2013, dated 2019).

**Q.** Which “time to peak increments of plasma nicotine concentration” value (smoking a cigarette) does the source give for `CN1CCCC1c1cccnc1` (centres unmarked) [nicotine] here?
**A.** ≤ 10 min

**Q.** What about the “peak increments of plasma nicotine concentration” value (smoking a single cigarette) of the same compound?
**A.** 5 to 30 ng/mL
